Columns and labels:
[1] = biological target: T1, Cholecystokinin receptor type A (Cavia porcellus, UniProt Q63931); test: Tested for inhibition of [3H]-pCCK-8 specific binding to cholecystokinin type A receptor in guinea pig pancreatic membranes; assay type: cell membranes
T1 sequence (Q63931 whole entry): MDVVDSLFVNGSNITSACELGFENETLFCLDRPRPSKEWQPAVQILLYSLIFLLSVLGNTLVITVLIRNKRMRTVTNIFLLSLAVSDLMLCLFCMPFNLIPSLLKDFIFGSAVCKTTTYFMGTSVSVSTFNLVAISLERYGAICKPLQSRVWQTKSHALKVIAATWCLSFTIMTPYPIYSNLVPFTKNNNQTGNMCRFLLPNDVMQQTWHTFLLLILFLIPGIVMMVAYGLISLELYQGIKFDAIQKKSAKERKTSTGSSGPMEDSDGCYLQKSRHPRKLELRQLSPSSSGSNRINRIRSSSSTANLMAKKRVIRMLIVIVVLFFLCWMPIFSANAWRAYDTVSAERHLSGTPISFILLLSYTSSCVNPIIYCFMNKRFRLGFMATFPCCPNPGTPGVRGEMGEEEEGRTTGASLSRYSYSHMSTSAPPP

[2] = biological target: T2, Cholecystokinin receptor type A (Rattus norvegicus, UniProt P30551); test: Tested for binding affinity towards cholecystokinin type A receptor in rat pancreas by displacement of [3H]pCCK-8 radioligand
T2 sequence (P30551 whole entry): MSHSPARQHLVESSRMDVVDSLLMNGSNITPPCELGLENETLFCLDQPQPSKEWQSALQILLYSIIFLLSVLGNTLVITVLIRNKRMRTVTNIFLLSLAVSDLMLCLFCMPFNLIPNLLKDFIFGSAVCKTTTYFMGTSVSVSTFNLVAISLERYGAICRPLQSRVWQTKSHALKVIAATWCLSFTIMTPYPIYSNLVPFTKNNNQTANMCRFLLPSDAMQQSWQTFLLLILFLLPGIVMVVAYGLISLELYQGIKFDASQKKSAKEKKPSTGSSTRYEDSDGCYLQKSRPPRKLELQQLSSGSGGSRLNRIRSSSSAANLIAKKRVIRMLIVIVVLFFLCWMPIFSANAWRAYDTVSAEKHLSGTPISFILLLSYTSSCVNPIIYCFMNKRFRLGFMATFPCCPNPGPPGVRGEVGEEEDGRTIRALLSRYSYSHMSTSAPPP

[3] = biological target: T3, Gastrin/cholecystokinin type B receptor (Rattus norvegicus, UniProt P30553); test: Tested for binding affinity towards cholecystokinin type B receptor in rat […] by displacement of [3H]pCCK-8 radioligand
T3 sequence (P30553 whole entry): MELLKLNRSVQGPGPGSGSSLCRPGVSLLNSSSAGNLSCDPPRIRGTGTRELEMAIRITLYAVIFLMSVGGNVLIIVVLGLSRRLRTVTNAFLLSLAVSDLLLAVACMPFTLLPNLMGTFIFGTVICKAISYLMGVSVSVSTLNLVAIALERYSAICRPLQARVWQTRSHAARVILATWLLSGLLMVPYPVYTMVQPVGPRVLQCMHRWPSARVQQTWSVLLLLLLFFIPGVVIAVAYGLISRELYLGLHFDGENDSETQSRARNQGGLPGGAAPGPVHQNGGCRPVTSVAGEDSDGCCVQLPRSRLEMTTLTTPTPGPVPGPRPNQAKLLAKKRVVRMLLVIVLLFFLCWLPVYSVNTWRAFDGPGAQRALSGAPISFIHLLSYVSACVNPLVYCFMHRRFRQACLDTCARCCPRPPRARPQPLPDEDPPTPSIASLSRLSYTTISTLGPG

[4] = biological target: T4, Gastrin/cholecystokinin type B receptor (Mus musculus, UniProt P56481); test: Tested for binding affinity towards cholecystokinin type B receptor in mouse brain by displacement of [3H]pBC264 radioligand (icv); assay type: tissue-based
T4 sequence (P56481 whole entry): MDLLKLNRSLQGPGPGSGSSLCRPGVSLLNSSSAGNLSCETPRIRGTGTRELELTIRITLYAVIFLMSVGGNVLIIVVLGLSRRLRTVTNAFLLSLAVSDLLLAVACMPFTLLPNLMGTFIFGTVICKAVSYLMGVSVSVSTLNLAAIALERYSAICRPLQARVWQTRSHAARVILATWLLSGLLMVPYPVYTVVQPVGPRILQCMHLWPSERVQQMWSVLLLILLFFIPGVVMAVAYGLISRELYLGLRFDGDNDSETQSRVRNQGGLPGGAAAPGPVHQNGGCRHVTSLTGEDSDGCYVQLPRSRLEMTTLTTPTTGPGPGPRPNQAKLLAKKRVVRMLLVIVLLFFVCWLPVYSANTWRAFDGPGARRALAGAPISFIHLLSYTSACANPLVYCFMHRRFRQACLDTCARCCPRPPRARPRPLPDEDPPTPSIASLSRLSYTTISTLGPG

| SMILES | Ki [1] [nM] | also measured |
| --- | --- | --- |
| CC(Cc1c[nH]c2ccccc12)(NC(=O)OC1[C@H]2C[C@@H]3C[C@@H](C[C@H]1C3)C2)C(=O)Nc1ccccc1 (stereo partly drawn) | 6080 |  |
| CC(Cc1c[nH]c2ccccc12)(C(=O)OC1[C@H]2C[C@@H]3C[C@@H](C[C@H]1C3)C2)C(=O)N(CCc1ccc(Cl)cc1Cl)CC(=O)O (stereo partly drawn) | 3050 | Ki [3]: 28 nM; Ki [2]: 1220 nM; Ki [4]: 14 nM |
| CC(Cc1ccccc1)(NC(=O)OC1[C@H]2C[C@@H]3C[C@@H](C[C@H]1C3)C2)C(=O)N(CCc1ccccc1)CC(=O)O (stereo partly drawn) | 3800 |  |
| CC(Cc1c[nH]c2ccccc12)(NC(=O)Nc1ccc(Cl)cc1)C(=O)NCCc1ccccc1 (stereo not drawn) | 6330 |  |
| CC(Cc1c[nH]c2ccccc12)(NC(=O)OC1[C@H]2C[C@@H]3C[C@@H](C[C@H]1C3)C2)C(=O)NCCc1ccc(Cl)cc1Cl (stereo partly drawn) | 3160 |  |
| CC(Cc1ccc(Br)cc1)(NC(=O)OC1[C@H]2C[C@@H]3C[C@@H](C[C@H]1C3)C2)C(=O)N(CCc1ccccc1)CC(=O)O (stereo partly drawn) | 3410 |  |
| CC(Cc1c[nH]c2ccccc12)(NC(=O)OC1[C@H]2C[C@@H]3C[C@@H](C[C@H]1C3)C2)C(=O)NCCc1ccc([N+](=O)[O-])cc1 (stereo partly drawn) | 2350 |  |
| COc1ccc(CCNC(=O)C(C)(Cc2c[nH]c3ccccc23)NC(=O)OC2[C@H]3C[C@@H]4C[C@@H](C[C@H]2C4)C3)cc1 (stereo partly drawn) | 3120 |  |
| CC(Cc1c[nH]c2ccccc12)(NC(=O)OC1[C@H]2C[C@@H]3C[C@@H](C[C@H]1C3)C2)C(=O)NCCc1ccc(Br)cc1 (stereo partly drawn) | 2140 |  |
| CC(Cc1c[nH]c2ccccc12)(NC(=O)OC1[C@H]2C[C@@H]3C[C@@H](C[C@H]1C3)C2)C(=O)NCCc1cccc2ccccc12 (stereo partly drawn) | 2370 |  |
| O=C(O)CN(CCc1ccccc1)C(=O)C(Cc1c[nH]c2ccccc12)NC(=O)OC1[C@H]2C[C@@H]3C[C@@H](C[C@H]1C3)C2 (stereo partly drawn) | 2840 |  |
| CC(Cc1c[nH]c2ccccc12)(NC(=O)OC1[C@H]2C[C@@H]3C[C@@H](C[C@H]1C3)C2)C(=O)Nc1ccc2ccccc2c1 (stereo partly drawn) | 2360 |  |
| CC(Cc1c[nH]c2ccccc12)(NC(=O)OC1[C@H]2C[C@@H]3C[C@@H](C[C@H]1C3)C2)C(=O)NCCCc1ccccc1 (stereo partly drawn) | 4250 |  |
| CC(Cc1c[nH]c2ccccc12)(NC(=O)OC1[C@H]2C[C@@H]3C[C@@H](C[C@H]1C3)C2)C(=O)NCC(=O)O (stereo partly drawn) | > 4000 |  |
| CC(Cc1cccc2ccccc12)(NC(=O)OC1[C@H]2C[C@@H]3C[C@@H](C[C@H]1C3)C2)C(=O)N(CCc1ccccc1)CC(=O)O (stereo partly drawn) | 2010 |  |
| CC(Cc1c[nH]c2ccccc12)(NC(=O)OC1[C@H]2C[C@@H]3C[C@@H](C[C@H]1C3)C2)C(=O)NCc1ccccc1 (stereo partly drawn) | 4100 |  |

Compounds with a lower Ki [1], results first:

| Ki [1] [nM] | SMILES | also measured |
| --- | --- | --- |
| 1780 | CC(Cc1c[nH]c2ccccc12)(NC(=O)NC(c1ccccc1)(c1ccccc1)c1ccccc1)C(=O)NCCc1ccccc1 (stereo not drawn) |  |
| 1890 | CC(Cc1c[nH]c2ccccc12)(NC(=O)OC1[C@H]2C[C@@H]3C[C@@H](C[C@H]1C3)C2)C(=O)NCCc1ccccc1 (stereo partly drawn) |  |
| 1540 | CC(Cc1c[nH]c2ccccc12)(NC(=O)OC1[C@H]2C[C@@H]3C[C@@H](C[C@H]1C3)C2)C(=O)NCCc1ccc(Cl)c(Cl)c1 (stereo partly drawn) |  |
| 1520 | CC(Cc1c[nH]c2ccccc12)(NC(=O)OC1[C@H]2C[C@@H]3C[C@@H](C[C@H]1C3)C2)C(=O)N(CCc1ccccc1)CC(=O)O (stereo partly drawn) | Ki [2]: 531 nM |
| 1040 | CC(Cc1c[nH]c2ccccc12)(NC(=O)OC1[C@H]2C[C@@H]3C[C@@H](C[C@H]1C3)C2)C(=O)N(CCc1ccc(Cl)cc1Cl)CC(=O)O (stereo partly drawn) |  |
| 1320 | CC(Cc1c[nH]c2ccccc12)(NC(=O)OC1[C@H]2C[C@@H]3C[C@@H](C[C@H]1C3)C2)C(=O)N(CCC(=O)O)CCc1ccccc1 (stereo partly drawn) |  |
| 1610 | CC(Cc1c[nH]c2ccccc12)(NC(=O)OC1[C@H]2C[C@@H]3C[C@@H](C[C@H]1C3)C2)C(=O)NCCc1ccc(Cl)cc1 (stereo partly drawn) |  |
| 769 | CC(Cc1c[nH]c2ccccc12)(NC(=O)Nc1ccc2ccccc2c1)C(=O)NCCc1ccccc1 (stereo not drawn) |  |
| 70 | CC(Cc1ccc2ccccc2c1)(NC(=O)OC1[C@H]2C[C@@H]3C[C@@H](C[C@H]1C3)C2)C(=O)N(CCc1ccccc1)CC(=O)O (stereo partly drawn) |  |
| 1130 | CC(Cc1c[nH]c2ccccc12)(NC(=O)OC1[C@H]2C[C@@H]3C[C@@H](C[C@H]1C3)C2)C(=O)N(CCc1ccc(Cl)cc1)CC(=O)O (stereo in doubt; 26) | Ki [2]: 1360 nM |
| 1060 | CC(Cc1c[nH]c2ccccc12)(NC(=O)OC1[C@H]2C[C@@H]3C[C@@H](C[C@H]1C3)C2)C(=O)N(CCc1ccc(Cl)cc1)CC(=O)O (stereo in doubt; 26A) | Ki [2]: 1230 nM |
